We go through 89 compounds from a melting point compilation (Tetko et al.; mined from patent text by program, amines drawn as free bases though some values may be those of a salt).

By melting point is commonly meant the temperature, or range, at which the solid turns liquid.

For `CCCCC1=NC2(CCCC2)C(=O)N1Cc1ccc(-c2ccccc2S(=O)(=O)NC(=O)c2onc(C)c2C)c(CN2CCC(C)(C)C2=O)c1`, the melting point is 104 to 110 °C.
For `CN1CC(c2ccc(Cl)cc2)C(=O)C(c2cccc(Cl)c2)C1` (centres undefined) the value was 126 °C; for `CCCCNC(=O)N(C)c1cccc(-c2ccc(C=C(OC)C(=O)O)cc2OCCCC)c1`, 106 °C.
Then `NC(=O)N(O)Cc1cc(-c2ccc(Cl)cc2)n(-c2ccc(S(N)(=O)=O)cc2)n1`, with 216 to 218 °C; and `N#Cc1cc(F)cc(-c2cc(Br)c3c(c2)C2(CCCCC2)C(=O)N3)c1`, with 217 °C; and `COC(=O)C(=CC(=CN(C)C)c1ccc(C)cc1[N+](=O)[O-])[N+](=O)[O-]`, with 213 to 215 °C.
For `O=C(O)c1ccc(OCc2ccc(Cl)cc2)cc1OCc1ccccc1` the value was 150 to 152 °C; for `O=C1N(N2CCOCC2)c2ccccc2C1(O)Cc1ccccn1` (centres undefined), 168 to 170 °C.
For the compound `CCCCOCCOc1ccc(-c2ccc3c(c2)C=C(C(=O)Nc2ccc(S(=O)Cc4nccn4CC(=O)O)cc2)CCN3CC(C)C)cc1` (centres undefined), the melting point fell in the range of 146 to 148 °C.
Then `CC(C)(C)OC(=O)N[C@H](Cc1ccc(C(F)(F)F)o1)[C@@H](O)c1ccc(F)cc1` (racemic), with 111 to 112 °C; and `O=C(NCCc1c2n(c3ccc(O)nc13)CCCc1ccccc1-2)c1ccco1`, with over 260 °C.
With `COP(=O)(OC)C(C)(C)O`, the melting point was in the range of 75 to 77 °C.
`O=C(c1ccccc1)c1cccc2c1NCC2` displayed a melting point of 124 to 125 °C.
For `COc1cc(OC)c(-c2csc(N)n2)cc1Cl` the value was 162 °C.
`CN1C(=O)C2(COc3cc4c(cc32)OCCO4)c2c(C(=O)NCc3ccccn3)cccc21` (centres undefined) came in with a melting point of 214 to 215 °C.
`CCOC(=O)c1ccc(NCCCCCCCCCCCOc2ccccc2)cc1` came in with a melting point of 83 to 87 °C.
For `C=C(C)COc1ccc2c(C)cc(=O)oc2c1C(=O)C=Cc1cccc(OC)c1` the value was 85 to 87 °C; for `CCCCc1ccc(CC(N)C(=O)O)cc1` (centres undefined), 218 to 223 °C; for `CN1C(=O)CC[C@]2(C)c3ccc(SCc4nc5ccccc5s4)cc3CC[C@@H]12`, 78 to 80 °C.
Then `Cc1ccc(C(N)(c2ccc3c(c2)C(c2cccc(Cl)c2)Nc2nnnn2-3)c2cncn2C)cc1` (centres undefined), with 140 °C; and `CCc1cccc(CC)c1NC(=O)NC1(c2cccs2)CCCCC1`, with 208 to 210 °C.
For `COC(=O)Cn1c(=O)c(=O)[nH]c2cc(N)c(Cl)cc21`, the melting point was over 260 °C.
Then `O=C(O)c1cnc(-c2ccccc2)c2ccccc12`, with 215 to 217 °C; and `Cc1nc(NC(=O)c2nnn(Cc3ccc(Cl)c(Cl)c3)c2C)sc1C(=O)O`, with 263 °C.
`Cc1cc(N)c(C)c(Cl)c1Oc1ccc(C(=O)c2ccc(Cl)cc2)cc1` registered a melting point of 113 to 122 °C.
Then `ON=C1c2sccc2-n2cccc21`, with 172 °C.
Then `CCc1nc2c(N)nc3ccccc3c2n1CC#Cc1ccc([N+](=O)[O-])cc1`, with 190 to 206 °C; and `CCCCCCCCCCCCCCSCc1ccc(C(C)=O)o1`, with 55 to 57 °C; and `Cc1ccc(-c2cc(N3CCCCC3)c(C#N)c3c2-c2ccccc2C3=O)cc1`, with 230 to 232 °C.
For `CN(C)Cc1cc(C(=O)c2cccn2C)cc(C(C)(C)C)c1O` the value was 174 °C; for `CC(=CCO)COc1ccc([N+](=O)[O-])cc1`, 41 to 43 °C.
Regarding `NNC1=Nc2ccc(Cl)cc2N(c2ccccc2)C(=O)C1`, the melting point lay within 91 to 93 °C.
`O=C1OC(=O)c2nc3ccc(OC(F)F)cc3cc21` registered a melting point of 158 °C.
For `OC(c1ccccc1)C(NCc1ccco1)c1ccccc1` (centres undefined) the value was 141 to 144 °C; for `CC(C)(S)C(O)(Cn1cncn1)c1ccc(F)cc1F` (single isomer, unassigned; (-)), 105 °C.
Then `N#Cc1cc2nc(O)c(O)nc2cc1C#N`, with over 300 °C.
For `OC(Cn1cncn1)(OCCOc1ccc(Cl)cc1Cl)c1ccc(Cl)cc1Cl` (centres undefined) the value was 88 to 90 °C; for `O=C(CNC(=O)C(Cc1ccccc1)P(=O)(O)O)OCc1ccccc1` (centres undefined), 208 to 228 °C; for `O=C(O)c1c[nH]c(Br)c1-c1ccc(Cl)cc1`, over 205 °C.
`Cc1csc2ncc(C=O)n12` yielded a melting point of 163 to 165 °C.
Then `COc1cc(Nc2c(C#N)cnc3cc(/C=C/CCN4CCCC4)c(OC)cc23)c(Cl)cc1Cl`, with 158 to 159 °C.
Then `CCCCCCC1=CC(O)(C(Br)Br)N(c2ccccc2)C1=O` (centres undefined), with 43 to 45 °C.
For `Cn1ncnc1-c1cc(S(C)(=O)=O)c2[nH]c(=O)ccc2c1` the value was 226 to 232 °C.
Take `CN(C(=O)Cc1ccccc1)c1nn(C)c(-c2ccc(F)cc2)c1-c1ccncc1`: the melting point lay within 170 to 171 °C.
For `O=C(Nc1cccc(-c2nnn[nH]2)c1)Oc1ccc([N+](=O)[O-])cc1` the value was 186 to 188 °C; for `CCOC(=O)C1(c2cccs2)CC(CC)=NNC1C` (centres undefined), 127 °C; for `O=c1n(CCO)c2ccccc2n1-c1ccc(F)cc1`, 124 to 126 °C.
Then `CC1(C)OC[C@@H](N)[C@H](O)CO1` (relative stereo), with 81.5 to 82.5 °C.
With `COC(=O)Cc1c(C)n(-c2ccnc3ccccc23)c2ccc(OC)cc12`, the melting point was in the range of 103 to 105 °C.
Then `CCOC(=O)N1CCN(CCNc2ncnc3c2sc2nc(N(C)C)c4c(c23)CC(C)(C)CC4)CC1`, with 138 to 140 °C.
In turn, `O=C(NCN1CCOCC1)c1cn(-c2ccc(F)cc2)c2cc(-c3ccncc3)ccc2c1=O` displayed a melting point of 258 to 260 °C.
Turning to `O=Cc1cc(Br)c(O)c(OCc2ccccc2)c1`, the melting point was in the range of 160 to 162 °C.
In turn, `Cc1nc(C)c(-c2ccc(C#N)cc2)s1` displayed a melting point of 108 to 110 °C.
For `O=C(CCc1cccc(F)c1F)c1cnc2sc3c(n12)CCCCC3` the value was 108 to 110 °C; for `O=C(CN1CCC(Cc2ccc(F)cc2)CC1)Nc1ccc2[nH]c(=S)[nH]c2c1`, 266 to 268 °C; for `CCOC(=O)c1ccc(-c2ccc3c(c2)OCO3)cc1`, 92.5 to 93.5 °C.
The compound `O=C(O)c1cn(-c2ccc(OC(F)(F)F)c(Cl)c2)cn1` showed a melting point of 230 to 231 °C.
As for `COC(=O)C=CC(C)Oc1ccc(OCc2ccccc2)cc1` (centres undefined), the melting point lay in the range of 80 to 89 °C.
For `N#Cc1cc(C(=O)NN2CCOCC2)ccc1OCC(=O)O` the value was 205 to 206 °C.
Then `CC(O)(c1ccncc1)c1cnc(-c2ccc(F)cc2)s1` (centres undefined), with 229 to 232 °C; and `Cc1c(NC(=O)c2ccc(-c3ccc(F)cc3)cc2F)ccc2cc(CN3CCCC3)cnc12`, with 176 to 178 °C.
Consider `O=Cc1c2ccccc2cc2c1sc1ccccc12`, for which the melting point worked out at 199 °C.
For `CS(=O)(=O)c1ccc(-c2cnn(CC(F)(F)F)c(=O)c2Nc2ccc(F)cc2F)cc1` the value was 170 to 175 °C; for `CCCn1c(=O)c2[nH]c(C34CCC(C)(C(=O)O3)C4(C)C)nc2n(CCC)c1=O` (centres undefined), 200 to 201 °C; for `Cc1c(CO)ncn1Cc1ccccc1`, 176 to 180 °C.
For `CC(Oc1ccc(Oc2ccc3cc(Cl)ccc3n2)cc1)C(=O)Nc1ccc(C(F)(F)F)cc1` (centres undefined) the value was 142 to 146 °C; for `COc1cc(OC)c2cc(-c3cc(OC)c(OC)c(OC)c3)oc2c1`, 131 to 132 °C; for `CCOc1cccc(-c2ccc(C3=CCN(S(=O)(=O)CC(=O)OC)CC3)cc2C)c1`, 79 to 81 °C.
For `Cc1ccc(C(=O)Nc2c(NC(=O)CN3CCN(c4ccccc4F)CC3)ccc3c2C(=O)c2ccccc2C3=O)cc1` the value was 228 to 229 °C.
Turning to `O=C1C=C(O)C(=O)c2cc(-c3ccccc3)ccc21`, the melting point was 190 to 192 °C.
The compound `CCCCCCCCCCCCCCCCCNC(=O)OC1CCCOC1COCC(O)CCCCCCO` (centres undefined) yielded a melting point of 67 to 68 °C.
In the case of `CN(C)CC(=O)Nc1cccc2nc(N[C@@H]3CCc4ccccc43)ccc12`, the melting point turned out to be 153 °C.
Then `Nc1nc(F)cc(OCc2ccccc2)n1`, with 96 to 98 °C; and `CCNC(=O)c1c(Cl)cccc1NC(C)(C)C`, with 139 to 140 °C.
Then `CCOC(=O)CCCCc1oc(=O)[nH]c1-c1ccc(Cl)cc1`, with 143 to 144 °C; and `C#CCOc1ccc(C=O)cc1OC`, with 95 °C.
Then `O=C(N[C@H](Cc1ccccc1C(F)(F)F)[C@@H](O)c1ccc(F)cc1)c1cccc2ccccc12` (racemic), with 193 to 194 °C.
On to `O=[N+]([O-])c1ccc(Sc2ccc(OCC3CO3)cc2)cc1` (centres undefined), for which the melting point lay within 96 to 99 °C.
For `N=C(N)c1ccc2cc(OC(=O)CCCC3CCCCC3)ccc2c1` the value was 189 to 193 °C.
In turn, `CC(C)(N)CNc1ncc2ncnc(Nc3ccc(F)c(Cl)c3)c2n1` returned a melting point of 205 to 207 °C.
For `CC1(c2cc(NC(=O)c3ccc(Cl)cn3)ccc2F)N=C(N)COCC1(F)F` (centres undefined) the value was 190 to 193 °C.
For `CCOC(=O)c1cn(CC)c2ncncc2c1=O` the value was 136 °C; for `COc1ccc(F)cc1C(C)(C)CC(O)(Cc1ccccn1)C(F)(F)F` (centres undefined), 94 to 96 °C; for `CSC1=NC2C=C(C(=O)NCC3CC3)C(NC(=O)c3cc(C(F)(F)F)nn3-c3ncccc3Cl)=C(Cl)C2S1` (centres undefined), 221 to 223 °C.
For `F[C@H]1C[C@H](COc2ccccc2Cl)N(c2ncnc3[nH]cnc23)C1` the value was 143 to 144 °C.
Take `COC(=O)CCc1cc(NC(=O)c2ccc(C(=O)Nc3cc(CCC(=O)OC)cc(C(C)(C)C)c3O)s2)c(O)c(C(C)(C)C)c1`: the melting point fell in the range of 172 to 173 °C.
For `Cc1cnc2c(N)cccc2c1Cl` the value was 112 to 114 °C; for `CCOCc1nc2c(N)nc3ccccc3c2n1NCCCNC(C)=O`, 178 to 181 °C.
For `CSc1nn(Cc2cccc(C(F)(F)F)c2)c(N)c1C#N` the value was 142 °C.
